Measurements reported in patent publication US20200246241A1, “COSMETIC COMPOSITION FOR BLOCKING FINE DUST” (LG HOUSEHOLD & HEALTH CARE LTD., priority 2017, published 2020).
“Also recorded” adds a separate entry of the source.

Assay: Estimation of fine dust attachment on PMMA plate coated with artificial sebum
Details: compared to control group or other compounds
Procedure: 1) Method for Estimating Fine Dust Attachment
i) After applying artificial sebum of 1.3 mg/cm^2 on a PMMA plate, it was dried for 15 minutes.
ii) After applying a test formulation on the dried artificial sebum in the same amount, it was dried for 15 minutes (Noting was applied on the control group).
iii) The PMMA plate was attached on the internal top of the self-made chamber, and a pan on the bottom of the chamber was operated for 5 minutes, to expose 0.5 g substitutive fine dusts (brand name LM-YG0510, comprising strontium carbonate, alumina, europium oxide, and dysprosium oxide).
iv) Using a magnifying glass (Aphrodite-3, 50×), UV images were photographed (measuring 4 points per plate).
v) Using ImagePro Plus, the area of dust attachment was measured.
vi) The fine dust attachment rate was calculated by comparing the sample with the result of 3 times of experiments (Setting the fine dust attachment rate of the control group to 100).

Which “effect of preventing fine dust attachment (in words)” value (“effect” below) does the source give for `CCCCC(CC)COC(=O)c1ccc(Nc2nc(Nc3ccc(C(=O)NC(C)(C)C)cc3)nc(Nc3ccc(C(=O)OCC(CC)CCCC)cc3)n2)cc1` (stereo not drawn) [Diethylhexyl butamido triazone] here?
The value was “excellent effect of preventing fine dust attachment; also recorded: excellent effect of reducing fine dust attachment”.

With `CCCCC(CC)COC(=O)c1ccc(Nc2nc(Nc3ccc(C(=O)OCC(CC)CCCC)cc3)nc(Nc3ccc(C(=O)OCC(CC)CCCC)cc3)n2)cc1` (stereo not drawn) [ethylhexyl triazone] as the compound, how does the “effect” value read?
Its value is “excellent effect of preventing fine dust attachment; also recorded: excellent effect of reducing fine dust attachment”.

Which “effect” value does the source give for `O=S(=O)([O-])c1cc(S(=O)(=O)O)cc2[nH]c(-c3ccc(-c4nc5c(S(=O)(=O)[O-])cc(S(=O)(=O)O)cc5[nH]4)cc3)nc12.[Na+].[Na+]` [disodium phenyl dibenzimidazole tetrasulfonate] here?
The value was “excellent effect of preventing fine dust attachment; also recorded: excellent effect of reducing fine dust attachment”.

For `Nc1nc(N)nc(N)n1` [melamine, 1,3,5-triazine-2,4,6-triamine], which “effect” value is on record?
Its value is “excellent effect of preventing fine dust attachment”.

With `CC(C)(C)CC(C)(C)c1cc(Cc2cc(C(C)(C)CC(C)(C)C)cc(-n3nc4ccccc4n3)c2O)c(O)c(-n2nc3ccccc3n2)c1` [Methylene Bis-Benzotriazolyl tetramethyl butylphenol] as the compound, how does the “effect” value read?
Its value is “excellent effect of preventing fine dust attachment; also recorded: excellent effect of reducing fine dust attachment”.

For trisbiphenyl triazine, which “effect” value is on record?
The value was “excellent effect of preventing fine dust attachment; also recorded: excellent effect of reducing fine dust attachment”.
